This note sets out measurements from publication doi:10.1101/2024.08.19.608619, “Discovery of potent SARS-CoV-2 nsp3 macrodomain inhibitors uncovers lack of translation to cellular antiviral response” (bioRxiv, 2024).

Structures are written as SMILES. Read-outs that look alike come from different tables or passages of the source.

Test [1] deals with T1, SARS-CoV-2 nsp3-mac1 (Severe acute respiratory syndrome coronavirus 2, UniProt P0DTD1). Kind of test: biochemical. More on the design: SARS-CoV-2 nsp3 macrodomain TR-FRET single point, per cent inhibition, n=2.
Test [2] concerns the target T1, SARS-CoV-2 nsp3-mac1. Kind of test: biochemical. The format is biochemical. The settings on record: SARS-CoV-2 nsp3 macrodomain TR-FRET single point.
Setting [3] is: read-out: perc_inhibition_mean, batch_name=ASAP-0000393-001.
Where [4] appears, read: read-out: perc_inhibition_mean, batch_name=ASAP-0000480-001.
The mark [5] stands for this setting: read-out: perc_inhibition_mean, batch_name=ASAP-0000467-001.
[6] abbreviates: read-out: perc_inhibition_mean, batch_name=ASAP-0000340-001.
Setting [7] is: read-out: perc_inhibition_mean, batch_name=ASAP-0000257-001.
The mark [8] stands for this setting: read-out: perc_inhibition_mean, batch_name=ASAP-0000262-001.
Setting [9] is: read-out: perc_inhibition_mean, batch_name=ASAP-0000307-001.
Setting [10] is: read-out: perc_inhibition_mean, batch_name=ASAP-0000285-001.
Setting [11] is: read-out: perc_inhibition_mean, batch_name=ASAP-0000258-001.
Where [12] appears, read: read-out: perc_inhibition_mean, batch_name=ASAP-0000468-001.

As to `Cc1[nH]cnc1C(=O)N1CCC(c2ccn3ncc(C(=O)N4CCCCC4)c3c2)CC1` [ASAP-0000393], on SARS-CoV-2 nsp3-mac1 [1] (setting [3]), the inhibition at 49.75 µM is 16.4% and the inhibition at 99.5 µM stood at 32%. At SARS-CoV-2 nsp3-mac1 [2] (concentration 49.75 uM), the perc_inhibition_mean worked out at 16.419%. At SARS-CoV-2 nsp3-mac1 [2] (concentration 99.5 uM), the perc_inhibition_mean is recorded as 32.041%.

With `CC(C)[C@@H](CO)[C@@H](Nc1ncnc2[nH]ccc12)C(C)C` [ASAP-0000480], on SARS-CoV-2 nsp3-mac1 [1] (setting [4]), the inhibition at 49.75 µM was determined as 6.65% and the inhibition at 99.5 µM came to 13.1%. The perc_inhibition_mean on SARS-CoV-2 nsp3-mac1 [2] (concentration 49.75 uM) was determined as 6.651%. For the same compound, on SARS-CoV-2 nsp3-mac1 [2] (concentration 99.5 uM), the perc_inhibition_mean was found to be 13.057%.

As for `COc1ccccc1C[C@@H](Nc1ncnc2[nH]ccc12)C(C)C` [ASAP-0000467], at SARS-CoV-2 nsp3-mac1 [1] (setting [5]), the inhibition at 49.75 µM turned out to be 31.7%. Moreover, the inhibition at 99.5 µM on SARS-CoV-2 nsp3-mac1 [1] (setting [5]) is 48.5%. In addition, the perc_inhibition_mean at SARS-CoV-2 nsp3-mac1 [2] (concentration 49.75 uM) amounted to 31.716%; at SARS-CoV-2 nsp3-mac1 [2] (concentration 99.5 uM) it was 48.499%.

As to `O=C(CCCc1cccnc1)Nc1cnc2[nH]ncc2c1` [ASAP-0000114], the inhibition at 50 µM on SARS-CoV-2 nsp3-mac1 [1] (read-out: perc_inhibition_mean, batch_name=ASAP-0000114-001) was -3.65%. For the same compound, the perc_inhibition_mean on SARS-CoV-2 nsp3-mac1 [2] (concentration 50.0 uM) is reported as -3.651%.

`Cn1cc(Br)c(CNC(=O)c2ccc(NC(=O)Nc3ccccc3)cc2)n1` [ASAP-0000340]: on SARS-CoV-2 nsp3-mac1 [1] (setting [6]), the inhibition at 49.75 µM was determined as 4.31% and the inhibition at 99.5 µM stood at 1.2%. Also, on SARS-CoV-2 nsp3-mac1 [2] (concentration 49.75 uM, n=2), the perc_inhibition_mean is on record as 4.308%. Also, the perc_inhibition_mean on SARS-CoV-2 nsp3-mac1 [2] (concentration 99.5 uM, n=2) was 1.196%.

Take `Cn1nc(NC(=O)c2cc3nccn3c(=O)[nH]2)c2nccnc21` [ASAP-0000125]: the inhibition at 50 µM on SARS-CoV-2 nsp3-mac1 [1] (read-out: perc_inhibition_mean, batch_name=ASAP-0000125-001) was -1.91%. In addition, the perc_inhibition_mean at SARS-CoV-2 nsp3-mac1 [2] (concentration 50.0 uM) is given as -1.913%.

Consider `Fc1ccc(Oc2cc(CNc3ncnc4nc[nH]c34)ccn2)cc1` [ASAP-0000021], for which, on SARS-CoV-2 nsp3-mac1 [1] (read-out: perc_inhibition_mean, batch_name=ASAP-0000021-001), the inhibition at 50 µM turned out to be 2.01%. The perc_inhibition_mean at SARS-CoV-2 nsp3-mac1 [2] (concentration 50.0 uM) is on record as 2.011%.

As to `C(=C1CCCCC1)c1ncnc2[nH]ccc12` [ASAP-0000257], on SARS-CoV-2 nsp3-mac1 [1] (setting [7]), the inhibition at 50 µM was -5.46% and the inhibition at 100 µM amounted to 3.46%. Further, the perc_inhibition_mean on SARS-CoV-2 nsp3-mac1 [2] (concentration 50.0 uM, n=2) is -5.46%. For the same compound, the perc_inhibition_mean on SARS-CoV-2 nsp3-mac1 [2] (concentration 100.0 uM, n=2) turned out to be 3.464%.

Turning to `c1cc(CNc2ncnc3nc[nH]c23)n2ncnc2c1` [ASAP-0000262], at SARS-CoV-2 nsp3-mac1 [1] (setting [8]), the inhibition at 50 µM was found to be 1.35% and the inhibition at 100 µM stood at 10%. Further, the perc_inhibition_mean on SARS-CoV-2 nsp3-mac1 [2] (concentration 50.0 uM, n=2) stood at 1.353%. Further, the perc_inhibition_mean at SARS-CoV-2 nsp3-mac1 [2] (concentration 100.0 uM, n=2) is 10.036%.

In the case of `COC(=O)c1cc2c(Oc3ccccc3C#N)ncnc2[nH]1` [ASAP-0000135], at SARS-CoV-2 nsp3-mac1 [1] (read-out: perc_inhibition_mean, batch_name=ASAP-0000135-001), the inhibition at 50 µM was found to be 2.92%. For the same compound, on SARS-CoV-2 nsp3-mac1 [2] (concentration 50.0 uM), the perc_inhibition_mean was found to be 2.922%.

Consider `Cn1cc(NC(=O)c2ccc(NC(=O)Nc3ccccc3)cc2)c(C#N)n1` [ASAP-0000307], for which, at SARS-CoV-2 nsp3-mac1 [1] (setting [9]), the inhibition at 49.75 µM was found to be 2.49% and the inhibition at 99.5 µM is -0.539%. Also, the perc_inhibition_mean at SARS-CoV-2 nsp3-mac1 [2] (concentration 49.75 uM, n=2) was 2.492%. Besides, the perc_inhibition_mean at SARS-CoV-2 nsp3-mac1 [2] (concentration 99.5 uM, n=2) is reported as -0.539%.

Take `NS(=O)(=O)N1CCCN(c2ncnc3[nH]c(I)cc23)CC1` [ASAP-0000017]: at SARS-CoV-2 nsp3-mac1 [1] (read-out: perc_inhibition_mean, batch_name=ASAP-0000017-001), the inhibition at 50 µM came out at 2.29%. The perc_inhibition_mean on SARS-CoV-2 nsp3-mac1 [2] (concentration 50.0 uM) is given as 2.291%.

On to `O=C(c1ncc[nH]1)N1CCC(c2ccn3ncc(C(=O)N4CCCCC4)c3c2)CC1` [ASAP-0000285], for which the inhibition at 49.75 µM at SARS-CoV-2 nsp3-mac1 [1] (setting [10]) amounted to 18.5%. The inhibition at 99.5 µM at SARS-CoV-2 nsp3-mac1 [1] (setting [10]) worked out at 37.2%. The perc_inhibition_mean at SARS-CoV-2 nsp3-mac1 [2] (concentration 49.75 uM, n=2) stood at 18.474%; at SARS-CoV-2 nsp3-mac1 [2] (concentration 99.5 uM, n=2) it was 37.203%.

Consider `Cc1cccc(C)c1-n1nnnc1CSc1ncnc2[nH]cnc12` [ASAP-0000052], for which the inhibition at 50 µM on SARS-CoV-2 nsp3-mac1 [1] (read-out: perc_inhibition_mean, batch_name=ASAP-0000052-001) was 6.63%. Further, the perc_inhibition_mean at SARS-CoV-2 nsp3-mac1 [2] (concentration 50.0 uM) is reported as 6.631%.

As to `O=c1[nH]cnc2[nH]cc(-c3ccoc3)c12` [ASAP-0000258], on SARS-CoV-2 nsp3-mac1 [1] (setting [11]), the inhibition at 50 µM was -14.5%. In addition, the inhibition at 100 µM at SARS-CoV-2 nsp3-mac1 [1] (setting [11]) was -13.8%. Further, the perc_inhibition_mean at SARS-CoV-2 nsp3-mac1 [2] (concentration 50.0 uM, n=2) is -14.47%; at SARS-CoV-2 nsp3-mac1 [2] (concentration 100.0 uM, n=2) it was -13.824%.

Turning to `Cc1nn(-c2ccccc2)c(C)c1[C@H]1COCCN1c1ncnc2[nH]ccc12` [ASAP-0000468], on SARS-CoV-2 nsp3-mac1 [1] (setting [12]), the inhibition at 49.75 µM is -0.042% and the inhibition at 99.5 µM was -4.22%. In addition, the perc_inhibition_mean at SARS-CoV-2 nsp3-mac1 [2] (concentration 49.75 uM) is recorded as -0.042%. Also, the perc_inhibition_mean on SARS-CoV-2 nsp3-mac1 [2] (concentration 99.5 uM) was -4.216%.
